pEC50, pIC50: −log10 of the molar value.
How the values were obtained:
[1] = biological target: mTOR (Mus musculus, UniProt Q9JLN9); format: cell-based
[2] = biological target: Human mTORC1 complex (Homo sapiens, UniProt P42345); experiment: In vitro mTORC1 kinase assay; format: biochemical

Row | SMILES | pEC50 [1] | improved mTOR cellular potency compared to screening hit compound 1 ([1]; relative to compound 1) [fold] | improvement in cellular potency, 7 versus 8 ([1]; relative to compound 8) [fold] | pIC50 [2] | pIC50 [1]
1 | CC(=O)N1CCN(c2ccc(-n3c(=O)ccc4cnc5ccc(-c6cnc7ccccc7c6)cc5c43)cc2C(F)(F)F)CC1 [Compound 7, 1-(4-(4-acetylpiperazin-1-yl)-3-(trifluoromethyl)phenyl)-9-(quinolin-3-yl)benzo[h][1,6]naphthyridin-2(1H)-one] | 8.52 | 1000 | 13 |  | 
2 | COCCC(=O)N1CCN(c2ccc(Nc3ccnc4ccc(-c5cnc6ccccc6c5)cc34)cc2C(F)(F)F)CC1 [Compound 16] |  |  |  | 7.08 | 7.40

From paper PMC3893826 (Journal of medicinal chemistry, 2010)
